Test results taken from ChEMBL document CHEMBL1909046, “DrugMatrix in vitro pharmacology data”.

What was measured:
[1] = target: T1, Alpha-2A adrenergic receptor (Homo sapiens, UniProt P08913); format: cell membranes, Sf9, Membrane; conditions: sf9; further: in other assays of this panel Not Active means under 50% inhibition at 10 µM
T1 sequence (P08913 whole entry): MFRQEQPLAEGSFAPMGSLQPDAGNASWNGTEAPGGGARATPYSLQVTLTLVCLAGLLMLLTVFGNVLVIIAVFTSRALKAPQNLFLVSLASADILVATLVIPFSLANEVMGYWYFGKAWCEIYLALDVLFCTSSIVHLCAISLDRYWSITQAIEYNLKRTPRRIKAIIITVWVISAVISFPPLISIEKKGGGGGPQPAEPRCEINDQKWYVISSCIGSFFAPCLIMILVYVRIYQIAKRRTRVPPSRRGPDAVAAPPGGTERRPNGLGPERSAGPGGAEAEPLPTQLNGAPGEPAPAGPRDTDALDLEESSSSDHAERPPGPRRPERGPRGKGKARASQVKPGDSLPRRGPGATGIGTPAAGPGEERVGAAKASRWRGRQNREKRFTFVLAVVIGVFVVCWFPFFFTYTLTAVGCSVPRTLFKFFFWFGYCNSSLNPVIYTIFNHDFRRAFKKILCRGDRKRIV

[2] = target: 5-hydroxytryptamine receptor 6 (Homo sapiens, UniProt P50406); format: cell membranes, HeLa, Membrane; conditions: hela; further: in other assays of this panel Not Active means under 50% inhibition at 10 µM
5-hydroxytryptamine receptor 6, sequence (P50406 whole entry): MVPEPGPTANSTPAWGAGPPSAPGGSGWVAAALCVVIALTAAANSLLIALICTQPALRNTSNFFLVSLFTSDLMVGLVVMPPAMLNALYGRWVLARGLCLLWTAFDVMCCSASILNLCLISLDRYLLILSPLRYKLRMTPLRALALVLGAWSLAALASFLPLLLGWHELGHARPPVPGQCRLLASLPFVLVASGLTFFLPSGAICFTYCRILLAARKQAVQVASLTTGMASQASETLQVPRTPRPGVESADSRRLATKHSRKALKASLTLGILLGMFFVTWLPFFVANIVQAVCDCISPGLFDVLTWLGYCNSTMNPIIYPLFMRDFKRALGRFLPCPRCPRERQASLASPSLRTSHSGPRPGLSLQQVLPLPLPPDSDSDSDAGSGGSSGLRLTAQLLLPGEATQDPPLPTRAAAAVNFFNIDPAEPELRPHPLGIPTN

[3] = DRUGMATRIX: Sigma2 radioligand binding (ligand: [3H] Ifenprodil); format: cell membranes, Rattus norvegicus, Wistar, Brain, Membrane; conditions: Not Active = under 50% inhibition at 10 µM
Substance-P receptor = Substance-P receptor (Homo sapiens, UniProt P25103); format: cell membranes, CHO, Membrane; conditions: cho; further: in other assays of this panel Not Active means under 50% inhibition at 10 µM
Substance-P receptor, sequence (P25103 whole entry): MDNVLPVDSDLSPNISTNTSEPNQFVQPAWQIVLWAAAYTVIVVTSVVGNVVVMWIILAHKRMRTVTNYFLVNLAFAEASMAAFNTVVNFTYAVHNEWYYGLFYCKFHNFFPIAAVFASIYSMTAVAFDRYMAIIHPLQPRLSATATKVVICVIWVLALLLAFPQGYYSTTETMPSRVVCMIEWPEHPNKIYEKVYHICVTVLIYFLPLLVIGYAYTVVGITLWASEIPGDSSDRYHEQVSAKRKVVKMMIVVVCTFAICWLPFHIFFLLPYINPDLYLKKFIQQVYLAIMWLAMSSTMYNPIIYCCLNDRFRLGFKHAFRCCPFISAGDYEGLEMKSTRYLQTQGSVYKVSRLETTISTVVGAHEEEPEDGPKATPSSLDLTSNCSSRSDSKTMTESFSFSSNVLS

Cannabinoid receptor 1 = Cannabinoid receptor 1 (Homo sapiens, UniProt P21554); format: cell membranes, Membrane; conditions: chem-1; further: in other assays of this panel Not Active means under 50% inhibition at 10 µM
Cannabinoid receptor 1, sequence (P21554 whole entry): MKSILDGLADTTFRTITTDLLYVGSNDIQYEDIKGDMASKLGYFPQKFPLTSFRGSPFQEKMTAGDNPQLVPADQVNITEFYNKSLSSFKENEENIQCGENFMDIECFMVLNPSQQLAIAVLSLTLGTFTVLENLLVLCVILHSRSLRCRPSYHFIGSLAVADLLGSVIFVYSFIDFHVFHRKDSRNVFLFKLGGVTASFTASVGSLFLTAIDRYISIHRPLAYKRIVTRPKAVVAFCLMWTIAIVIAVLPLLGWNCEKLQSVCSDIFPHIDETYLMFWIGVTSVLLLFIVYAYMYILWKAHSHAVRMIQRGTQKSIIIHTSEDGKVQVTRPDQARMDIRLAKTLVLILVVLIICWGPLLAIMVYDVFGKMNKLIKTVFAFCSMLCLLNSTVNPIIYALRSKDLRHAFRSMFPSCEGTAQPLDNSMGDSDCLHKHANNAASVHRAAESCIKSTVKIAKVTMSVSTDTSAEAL

Carbonic anhydrase 2 = Carbonic anhydrase 2 (Homo sapiens, UniProt P00918); test: DRUGMATRIX: Carbonic Anhydrase II enzyme inhibition (substrate: 4-Nitrophenyl acetate (4-NPA)); format: tissue-based, Erythrocyte; conditions: erythrocyte; Not Active = under 50% inhibition at 10 µM
[4] = target: C-C chemokine receptor type 5 (Homo sapiens, UniProt P51681); format: cell membranes, Membrane; conditions: hek293; further: in other assays of this panel Not Active means under 50% inhibition at 10 µM
C-C chemokine receptor type 5, sequence (P51681 whole entry): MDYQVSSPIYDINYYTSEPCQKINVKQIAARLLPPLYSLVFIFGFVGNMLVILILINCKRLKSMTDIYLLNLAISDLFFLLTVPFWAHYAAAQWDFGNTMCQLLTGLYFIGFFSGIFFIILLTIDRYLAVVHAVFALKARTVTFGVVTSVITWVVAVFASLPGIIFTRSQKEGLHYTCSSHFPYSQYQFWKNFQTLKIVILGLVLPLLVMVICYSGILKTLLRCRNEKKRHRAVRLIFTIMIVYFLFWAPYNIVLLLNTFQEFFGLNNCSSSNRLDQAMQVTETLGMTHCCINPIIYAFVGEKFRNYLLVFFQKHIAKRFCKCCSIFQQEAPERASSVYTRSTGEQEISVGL

[5] = target: Sodium-dependent dopamine transporter (Homo sapiens, UniProt Q01959); test: DRUGMATRIX: Dopamine Transporter radioligand binding (ligand: [125I] RTI-55); format: cell membranes, CHO-K1, Membrane; conditions: cho-k1; Not Active = under 50% inhibition at 10 µM
Sodium-dependent dopamine transporter, sequence (Q01959 whole entry): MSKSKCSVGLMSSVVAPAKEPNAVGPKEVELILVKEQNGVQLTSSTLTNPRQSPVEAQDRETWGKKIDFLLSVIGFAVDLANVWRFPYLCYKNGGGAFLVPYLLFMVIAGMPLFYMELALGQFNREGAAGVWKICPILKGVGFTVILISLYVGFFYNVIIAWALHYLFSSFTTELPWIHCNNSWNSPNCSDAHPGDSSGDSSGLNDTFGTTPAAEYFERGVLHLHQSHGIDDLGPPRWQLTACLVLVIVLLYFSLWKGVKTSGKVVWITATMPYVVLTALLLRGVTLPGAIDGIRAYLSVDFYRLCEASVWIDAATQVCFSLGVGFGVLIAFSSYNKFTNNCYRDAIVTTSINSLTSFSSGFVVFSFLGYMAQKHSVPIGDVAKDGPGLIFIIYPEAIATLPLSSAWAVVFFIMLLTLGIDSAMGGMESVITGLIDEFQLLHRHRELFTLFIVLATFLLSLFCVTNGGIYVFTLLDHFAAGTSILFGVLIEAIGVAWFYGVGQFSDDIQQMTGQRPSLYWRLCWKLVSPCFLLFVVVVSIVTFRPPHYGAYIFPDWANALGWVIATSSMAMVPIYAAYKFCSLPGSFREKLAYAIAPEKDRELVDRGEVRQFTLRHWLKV

[6] = DRUGMATRIX: GABAA, Chloride Channel, TBOB radioligand binding (ligand: [3H] TBOB); format: cell membranes, Rattus norvegicus, Wistar, Cerebral cortex, Membrane; conditions: Not Active = under 50% inhibition at 10 µM
[7] = DRUGMATRIX: Imidazoline I2, Central radioligand binding (ligand: [3H] Idazoxan); format: cell membranes, Rattus norvegicus, Wistar, Cerebral cortex, Membrane; conditions: Not Active = under 50% inhibition at 10 µM
Cathepsin G = target: T2, Cathepsin G (Homo sapiens, UniProt P08311); format: tissue-based; conditions: neutrophil
T2 sequence (P08311 whole entry): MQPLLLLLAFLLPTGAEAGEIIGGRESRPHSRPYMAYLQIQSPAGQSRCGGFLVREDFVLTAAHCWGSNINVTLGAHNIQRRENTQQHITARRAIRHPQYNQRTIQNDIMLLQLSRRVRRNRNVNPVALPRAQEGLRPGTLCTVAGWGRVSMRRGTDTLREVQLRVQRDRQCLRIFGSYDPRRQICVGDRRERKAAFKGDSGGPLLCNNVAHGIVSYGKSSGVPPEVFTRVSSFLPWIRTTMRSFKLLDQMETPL

[8] = target: Epidermal growth factor receptor (Homo sapiens, UniProt P00533); test: DRUGMATRIX: Protein Tyrosine Kinase, EGF Receptor enzyme inhibition (substrate: Poly(Glu:Tyr)); format: cell-based, Insect cells; conditions: insect cells; Not Active = under 50% inhibition at 10 µM
Epidermal growth factor receptor, sequence (P00533 whole entry): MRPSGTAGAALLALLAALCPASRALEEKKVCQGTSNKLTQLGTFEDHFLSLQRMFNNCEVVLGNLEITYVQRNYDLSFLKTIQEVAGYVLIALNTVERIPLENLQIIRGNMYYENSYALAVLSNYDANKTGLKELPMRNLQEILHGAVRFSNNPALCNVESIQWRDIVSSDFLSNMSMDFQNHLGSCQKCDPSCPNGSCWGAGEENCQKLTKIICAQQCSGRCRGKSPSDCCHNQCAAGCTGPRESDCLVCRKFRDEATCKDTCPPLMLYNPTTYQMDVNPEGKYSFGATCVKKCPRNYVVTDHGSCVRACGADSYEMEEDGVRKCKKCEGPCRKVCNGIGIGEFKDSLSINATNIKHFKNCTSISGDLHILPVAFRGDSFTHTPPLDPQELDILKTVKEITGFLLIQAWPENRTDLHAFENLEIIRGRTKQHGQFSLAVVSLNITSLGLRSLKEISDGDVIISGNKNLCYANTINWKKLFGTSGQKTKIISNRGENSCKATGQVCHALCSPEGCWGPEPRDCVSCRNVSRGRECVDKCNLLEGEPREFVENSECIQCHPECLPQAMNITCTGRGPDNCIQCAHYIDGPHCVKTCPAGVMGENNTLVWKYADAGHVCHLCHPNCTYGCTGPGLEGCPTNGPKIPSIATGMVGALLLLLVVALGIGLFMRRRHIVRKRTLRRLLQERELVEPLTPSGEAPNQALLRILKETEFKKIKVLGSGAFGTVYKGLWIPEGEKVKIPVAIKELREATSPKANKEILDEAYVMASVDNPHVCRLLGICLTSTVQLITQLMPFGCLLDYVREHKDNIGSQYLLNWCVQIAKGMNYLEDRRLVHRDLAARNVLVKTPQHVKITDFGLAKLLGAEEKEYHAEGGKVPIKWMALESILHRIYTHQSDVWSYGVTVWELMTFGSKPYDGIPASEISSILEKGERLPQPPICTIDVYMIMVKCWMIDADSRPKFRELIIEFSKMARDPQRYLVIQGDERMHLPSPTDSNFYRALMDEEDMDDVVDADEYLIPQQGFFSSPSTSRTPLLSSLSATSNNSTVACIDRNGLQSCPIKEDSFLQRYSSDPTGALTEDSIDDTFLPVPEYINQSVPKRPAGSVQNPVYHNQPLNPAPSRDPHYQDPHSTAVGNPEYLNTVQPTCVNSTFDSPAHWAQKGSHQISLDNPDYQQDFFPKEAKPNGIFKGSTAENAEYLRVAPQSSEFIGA

[9] = DRUGMATRIX: Purinergic P2X radioligand binding (ligand: [3H] alpha, beta-Methylene-ATP); format: cell membranes, Oryctolagus cuniculus, New Zealand albino, Urinary bladder, Membrane; conditions: Not Active = under 50% inhibition at 10 µM
Adenosine receptor A1 = target: T3, Adenosine receptor A1 (Homo sapiens, UniProt P30542); format: cell membranes, CHO, Membrane; conditions: cho
T3 sequence (P30542 whole entry): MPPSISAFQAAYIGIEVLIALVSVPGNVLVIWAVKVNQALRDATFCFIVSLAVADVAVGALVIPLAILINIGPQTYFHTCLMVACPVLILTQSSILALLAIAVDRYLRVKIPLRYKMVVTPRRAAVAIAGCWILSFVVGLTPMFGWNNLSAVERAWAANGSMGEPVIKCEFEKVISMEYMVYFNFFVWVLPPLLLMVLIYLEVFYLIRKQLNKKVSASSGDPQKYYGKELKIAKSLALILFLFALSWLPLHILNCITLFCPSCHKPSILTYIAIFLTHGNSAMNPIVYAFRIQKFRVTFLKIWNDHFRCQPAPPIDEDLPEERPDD

Glucocorticoid receptor = target: T4, Glucocorticoid receptor (Homo sapiens, UniProt P04150); conditions: hela s3; further: in other assays of this panel Not Active means under 50% inhibition at 10 µM
T4 sequence (P04150 whole entry): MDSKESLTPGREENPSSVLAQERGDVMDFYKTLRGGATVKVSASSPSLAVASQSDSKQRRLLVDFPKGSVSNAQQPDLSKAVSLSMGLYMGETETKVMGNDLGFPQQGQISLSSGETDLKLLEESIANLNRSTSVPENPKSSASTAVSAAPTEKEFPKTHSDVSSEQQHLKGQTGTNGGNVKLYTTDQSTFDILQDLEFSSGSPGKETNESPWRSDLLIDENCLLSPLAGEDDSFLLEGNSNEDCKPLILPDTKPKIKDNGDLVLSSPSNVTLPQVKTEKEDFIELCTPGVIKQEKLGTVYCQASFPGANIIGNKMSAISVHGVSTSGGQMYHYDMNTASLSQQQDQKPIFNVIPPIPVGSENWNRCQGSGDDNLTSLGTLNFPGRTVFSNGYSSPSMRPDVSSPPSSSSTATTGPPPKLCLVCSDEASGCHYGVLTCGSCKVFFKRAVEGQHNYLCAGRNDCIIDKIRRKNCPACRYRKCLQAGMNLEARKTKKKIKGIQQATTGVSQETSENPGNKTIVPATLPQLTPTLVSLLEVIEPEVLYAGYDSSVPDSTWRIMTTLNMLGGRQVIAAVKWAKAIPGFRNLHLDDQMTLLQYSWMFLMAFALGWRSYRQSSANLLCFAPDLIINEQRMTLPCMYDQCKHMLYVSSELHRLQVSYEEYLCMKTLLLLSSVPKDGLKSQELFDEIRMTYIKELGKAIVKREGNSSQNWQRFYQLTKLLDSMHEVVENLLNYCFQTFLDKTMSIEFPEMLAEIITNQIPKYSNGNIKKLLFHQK

CCc1cccc2c3c([nH]c12)C(CC)(CC(=O)O)OCC3 (centres undefined) [ETODOLAC]
Not Active: IC50 [1] | IC50 [2] | IC50 [3] | Ki [3] | IC50 (Substance-P receptor) | IC50 (Cannabinoid receptor 1) | IC50 (Carbonic anhydrase 2) | IC50 [4] | IC50 [5] | IC50 [6] | Ki [6] | IC50 [7] | Ki [7] | IC50 (Cathepsin G) | IC50 [8] | IC50 [9] | Ki [9] | IC50 (Adenosine receptor A1)

CC(=O)[C@@]1(O)CC[C@H]2[C@@H]3C[C@H](C)C4=CC(=O)C=C[C@]4(C)[C@@]3(F)[C@@H](O)C[C@@]21C [FLUOROMETHOLONE]
Not Active: IC50 [1] | IC50 [2] | IC50 [3] | Ki [3] | IC50 (Substance-P receptor) | IC50 (Cannabinoid receptor 1) | IC50 (Carbonic anhydrase 2) | IC50 [4] | IC50 [5] | IC50 [6] | Ki [6] | IC50 [7] | Ki [7] | IC50 (Cathepsin G) | IC50 [8] | IC50 [9] | Ki [9] | IC50 (Adenosine receptor A1)

COc1c(N2CCNC(C)C2)c(F)cc2c(=O)c(C(=O)O)cn(C3CC3)c12 (centres undefined) [GATIFLOXACIN]
Not Active: IC50 [1] | IC50 [2] | IC50 [3] | Ki [3] | IC50 (Substance-P receptor) | IC50 (Cannabinoid receptor 1) | IC50 (Carbonic anhydrase 2) | IC50 [4] | IC50 [5] | IC50 [6] | Ki [6] | IC50 [7] | Ki [7] | IC50 (Cathepsin G) | IC50 [9] | Ki [9] | IC50 (Adenosine receptor A1) | IC50 (Glucocorticoid receptor)

CC1(C)[C@@H](O[C@H]2O[C@H](C(=O)O)[C@@H](O)[C@H](O)[C@H]2O[C@@H]2O[C@H](C(=O)O)[C@@H](O)[C@H](O)[C@H]2O)CC[C@]2(C)[C@H]3C(=O)C=C4[C@@H]5C[C@@](C)(C(=O)O)CC[C@]5(C)CC[C@@]4(C)[C@]3(C)CC[C@@H]12 [GLYCYRRHIZIN]
Not Active: IC50 [1] | IC50 [2] | IC50 [3] | Ki [3] | IC50 (Substance-P receptor) | IC50 (Cannabinoid receptor 1) | IC50 (Carbonic anhydrase 2) | IC50 [4] | IC50 [5] | IC50 [6] | Ki [6] | IC50 [7] | Ki [7] | IC50 (Cathepsin G) | IC50 [8] | IC50 [9] | Ki [9] | IC50 (Adenosine receptor A1)

CN1CCC[C@H]1c1cccnc1 [NICOTINE]
Not Active: IC50 [1] | IC50 [2] | IC50 [3] | Ki [3] | IC50 (Substance-P receptor) | IC50 (Cannabinoid receptor 1) | IC50 (Carbonic anhydrase 2) | IC50 [4] | IC50 [5] | IC50 [6] | Ki [6] | IC50 [7] | Ki [7] | IC50 (Cathepsin G) | IC50 [8] | IC50 [9] | Ki [9] | IC50 (Adenosine receptor A1)

CC1COc2c(N3CCN(C)CC3)c(F)cc3c(=O)c(C(=O)O)cn1c23 (centres undefined) [OFLOXACIN]
Not Active: IC50 [1] | IC50 [2] | IC50 [3] | Ki [3] | IC50 (Substance-P receptor) | IC50 (Cannabinoid receptor 1) | IC50 (Carbonic anhydrase 2) | IC50 [4] | IC50 [5] | IC50 [6] | Ki [6] | IC50 [7] | Ki [7] | IC50 (Cathepsin G) | IC50 [8] | IC50 [9] | Ki [9] | IC50 (Adenosine receptor A1)

Oc1cccc2cccnc12 [OXYQUINOLINE]
Not Active: IC50 [1] | IC50 [2] | IC50 [3] | Ki [3] | IC50 (Substance-P receptor) | IC50 (Cannabinoid receptor 1) | IC50 (Carbonic anhydrase 2) | IC50 [4] | IC50 [5] | IC50 [6] | Ki [6] | IC50 [7] | Ki [7] | IC50 (Cathepsin G) | IC50 [8] | IC50 [9] | Ki [9] | IC50 (Adenosine receptor A1)

CCCc1cc(=O)[nH]c(=S)[nH]1 [PROPYLTHIOURACIL]
Not Active: IC50 [1] | IC50 [2] | IC50 [3] | Ki [3] | IC50 (Substance-P receptor) | IC50 (Cannabinoid receptor 1) | IC50 (Carbonic anhydrase 2) | IC50 [4] | IC50 [5] | IC50 [6] | Ki [6] | IC50 [7] | Ki [7] | IC50 (Cathepsin G) | IC50 [8] | IC50 [9] | Ki [9] | IC50 (Adenosine receptor A1)
